Data set [1] relates to CYP17A1. Particulars: actual (literature) activity of training/test set compounds, cited from earlier work; for IC50: unit nM.
In a further data set the target is CYP19A1 (Homo sapiens (Human), UniProt P11511). Put plainly: CYP19A1 inhibition, CYP19/MFC High Throughput Inhibitor Screen Kit, fluorescence. The class given is biochemical. Particulars: Table 2. How it is done:
Test compounds and control inhibitors were prepared as stocks in either Acetonitrile or DMSO from the solid compound. Compounds were serially diluted in ½ log steps in the same solvent. CYP19A1 inhibition experiments were performed using the CYP19/MFC High Throughput Inhibitor Screen Kit (Corning). Test compounds were tested in seven concentrations: […] CYP19A1 reactions were performed in black 96 well-plates (Greiner) according to the manufacturer's instructions. […] Final organic solvent concentrations were either 4% (v/v) acetonitrile or 0.5% (v/v) Dimethyl sulfoxide. The plates were covered with self-adhesive film lids and incubated for 10 minutes at 37° C. Reactions were terminated by the addition of 75 μl Stop Solution (100 mM Tris base in acetonitrile: MilliQ water (80:20). […] The CYP activities for each test compound/positive control inhibitor at each concentration were converted to % of control activity (CA). The LC-MS/MS peak responses (CYP metabolite peak area/internal standard peak area) for each test compound or positive control inhibitor were used and the response for each sample was expressed as a percentage of an uninhibited control (DMSO incubation).

Data set [2] deals with CYP1A2, CYP2C9, CYP2C19, CYP2D6, and CYP3A4. Put plainly: Summary of inhibition of metabolic CYP450 isoforms (5 CYP panel). The class given is in vitro ADME, human. Particulars: Table 2.
A short description of data set [3]: Toxicity studies on the molecules in Table 2.
Another data set is described as follows: Solubility in DMSO. The data set is classed as physicochemical.
Data set [4] addresses CYP17A1 (Homo sapiens (Human), UniProt P05093). Put plainly: CYP17A1 inhibition, CYP17A1 bactosomes, progesterone substrate, LC-MS/MS. The data set is classed as biochemical. Particulars: Table 2.
Description: CYP17A1 inhibition was measured using 20 pmol/ml CYP17A1 bactosomes (Cypex, Dundee, UK) and 0.1 μM progesterone as a substrate and 1 mM NADPH in 50 mM potassium phosphate buffer pH 7.4 containing 5 mM magnesium chloride. Inhibitors were dissolved in DMSO and serially diluted in seven ½ log steps, final concentrations ranging from 50 μA to 50 nM. Reaction volume was 100 μl and final DMSO concentration was 1% (v/v). Reactions were started by the addition of NADPH and incubated at 37° C. for 20 minutes with shaking at 1800 rpm on a Bioshake IQ (Q-Instruments, Jena, Germany). Reactions were terminated by the addition of 200 μl methanol containing 1 μM tolbutamide as an internal standard.

By pIC50 is commonly meant the IC50 on a negative log10 scale, so that one unit is a factor of ten. One may read the IC50 as the concentration at which inhibition is half-maximal.

CYP17A1 (Homo sapiens (Human), UniProt P05093), sequence (P05093 whole entry): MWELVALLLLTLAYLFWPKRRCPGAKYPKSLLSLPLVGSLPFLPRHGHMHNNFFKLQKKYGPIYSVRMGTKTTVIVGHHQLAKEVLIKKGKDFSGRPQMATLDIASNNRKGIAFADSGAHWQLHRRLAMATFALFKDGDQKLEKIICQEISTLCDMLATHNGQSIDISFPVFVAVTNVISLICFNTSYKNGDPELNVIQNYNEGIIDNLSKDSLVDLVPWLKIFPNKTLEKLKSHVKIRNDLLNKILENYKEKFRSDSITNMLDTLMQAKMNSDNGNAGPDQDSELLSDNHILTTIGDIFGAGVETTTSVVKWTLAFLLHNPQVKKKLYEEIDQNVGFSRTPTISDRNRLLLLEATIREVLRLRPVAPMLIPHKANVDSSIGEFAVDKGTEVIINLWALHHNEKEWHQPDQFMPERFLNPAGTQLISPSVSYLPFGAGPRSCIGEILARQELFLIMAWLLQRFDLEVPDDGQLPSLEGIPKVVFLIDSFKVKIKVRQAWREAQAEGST
CYP19A1, sequence (P11511 whole entry): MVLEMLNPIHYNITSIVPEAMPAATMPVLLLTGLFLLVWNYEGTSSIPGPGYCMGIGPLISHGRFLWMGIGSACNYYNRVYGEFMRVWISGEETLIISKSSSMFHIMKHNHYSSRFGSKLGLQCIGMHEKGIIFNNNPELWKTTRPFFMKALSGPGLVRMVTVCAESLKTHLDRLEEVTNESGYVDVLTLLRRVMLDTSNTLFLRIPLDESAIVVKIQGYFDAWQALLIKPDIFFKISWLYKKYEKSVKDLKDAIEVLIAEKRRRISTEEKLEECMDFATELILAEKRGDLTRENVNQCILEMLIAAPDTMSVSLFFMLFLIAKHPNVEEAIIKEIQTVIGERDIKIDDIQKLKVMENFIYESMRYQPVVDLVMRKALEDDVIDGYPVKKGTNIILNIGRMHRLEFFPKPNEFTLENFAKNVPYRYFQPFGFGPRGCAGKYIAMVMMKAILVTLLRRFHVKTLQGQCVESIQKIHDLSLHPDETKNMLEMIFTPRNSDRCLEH

On to `CC(C)C(O)(c1ccc(-c2ccc(Cl)cc2)cc1)c1c[nH]cn1` (racemic) [16 [12]], for which, in the data set on CYP17A1 [1], the pIC50 is 7.550 and the IC50 was 28 nM.
As for `COc1ccc2cc(-c3ccc(Cc4ccncc4)cc3)ccc2c1` [13 [9]], in the data set on CYP17A1 [1], the pIC50 was 5.750 and the IC50 was 1790 nM.
With `O=C1COc2cc(NCc3cccc(C(=O)Nc4ccccc4O)c3)ccc2N1` [Compound 11, N-(2-hydroxyphenyl)-3-{[(3-oxo-3,4-dihydro-2H-1,4-benzoxazin-7-yl)amino]methyl}benzamide], the “IC50 values against CYP19A1, potency level in words” value on CYP19A1 is listed as “sub-micromolar inhibitory potency levels”. The “inhibition of various CYP450 isoforms (drug-drug interaction)” value (“inhibition of various CYP450 isoforms” below) in data set [2] is reported as “inhibit various CYP450 isoforms”. Moreover, the safety profile result in data set [3] is “reasonably good safety profiles”. Also, the “Soluble in DMSO” value in the data set “Solubility in DMSO” was “Yes”.
As to `CCNC(=O)c1ccc2cc(C3(O)CCn4cncc43)ccc2c1` (racemic) [25 [2]], in the data set on CYP17A1 [1], the pIC50 is recorded as 6.730 and the IC50 was 186 nM.
Regarding `CC(=O)Nc1cccc(-c2ccc(C(O)(c3c[nH]cn3)C(C)C)cc2)c1` (centres unmarked) [17 [12]], in the data set on CYP17A1 [1], the pIC50 was 7.620 and the IC50 is 24 nM.
Turning to `CNC(=O)c1ccc2cc(C3CCn4cncc43)ccc2c1` (racemic) [3d [11]], in the data set on CYP17A1 [1], the pIC50 is reported as 7.890 and the IC50 was 13 nM.
For `CC(C)=C(c1ccncc1)c1ccc(-c2ccc(O)c(F)c2)cc1` [15 [2]], in the data set with CYP17A1 [1], the pIC50 is reported as 7.120 and the IC50 is 75 nM.
Turning to `CCC(O)(c1ccc(-c2cccc(NC(C)=O)c2)cc1)c1c[nH]cn1` (racemic) [33 [12]], in the data set on CYP17A1 [1], the negative-log IC50 (pIC50) is reported as 7.400 and the IC50 is 40 nM.
As to `COc1ccc(-c2ccc(Cc3ccncc3)cc2)cc1OC` [9a [9]], in the data set on CYP17A1 [1], the pIC50 is recorded as 7.280 and the IC50 was 52 nM.
Take `CNC(=O)c1ccc2cc([C@@]3(O)CCn4cncc43)ccc2c1` [TAK700]: in the data set on CYP17A1 [1], the pIC50 was 7.550 and the half-maximal inhibitory concentration (IC50) is 28 nM.
As to `COC(C)C(=O)Nc1cccc(NC(C(N)=O)c2ccccc2)c1` (centres unmarked) [Compound 5, N-(3-{[carbamoyl(phenyl)methyl]amino}phenyl)-2-methoxypropanamide], the safety profile entry in data set [3] is “excellent safety profiles”. The “Soluble in DMSO” value in the data set “Solubility in DMSO” is given as “Yes”.
`CCc1ccc(NC(=O)c2cc(C(=O)c3cc(OC)ccc3O)coc2=N)cc1` [Compound 1, N-(4-ethylphenyl)-5-(2-hydroxy-5-methoxybenzoyl)-2-imino-2H-pyran-3-carboxamide]: the “inhibition of various CYP450 isoforms” value in data set [2] is “inhibit various CYP450 isoforms”. Besides, the “inhibitory potency of CYP17A1, level in words” value (“inhibitory potency of CYP17A1” for short) on CYP17A1 [4] is given as “micromolar levels”. Also, the safety profile entry in data set [3] is recorded as “reasonably good safety profiles”. Further, in the data set “Solubility in DMSO”, the “Soluble in DMSO” value is on record as “Yes”.
`CC(=O)Nc1cccc(-c2ccc(C(C)(O)c3c[nH]cn3)cc2)c1` (racemic) [32 [12]]: in the data set with CYP17A1 [1], the pIC50 is listed as 7.420 and the IC50 is 38 nM.
Turning to `O=C(Nc1ccccc1O)c1ccc(Oc2cccc(C(=O)Nc3ccccc3O)c2)cc1` [Compound 9, N-(2-hydroxyphenyl)-4-{3-[(2-hydroxyphenyl)carbamoyl]phenoxyl}benzamide], on CYP17A1 [4], the “inhibitory potency of CYP17A1” value is “micromolar levels”. Also, in data set [3], the safety profile entry was “excellent safety profiles”. The “Soluble in DMSO” value in the data set “Solubility in DMSO” is listed as “Yes”.
Consider `CC(C)=C(c1ccncc1)c1ccc(-c2cccc(O)c2)cc1` [13 [2]], for which, in the data set on CYP17A1 [1], the pIC50 is listed as 7.250 and the IC50 is 56 nM.
`NC(=O)c1ccc2cc(C3(O)CCn4cncc43)ccc2c1` (racemic) [3b [11]]: in the data set on CYP17A1 [1], the pIC50 is 7.540 and the 50% inhibitory concentration (IC50) is 29 nM.
For the molecule `CC(c1ccc(-c2ccc(F)cc2)cc1)n1ccnc1` (centres unmarked) [4 [9], 4-fluoro-4-[1-(1H-imidazolyl)ethyl]biphenyl], in the data set on CYP17A1 [1], the pIC50 is on record as 6.610 and the IC50 is 248 nM.
`Cl.Fc1ccc(-c2ccc3c(c2)CCC3c2cccnc2)cc1` (centres unmarked) [15 [13]]: in the data set with CYP17A1 [1], the pIC50 is reported as 4.700 and the IC50 is 20000 nM.
Consider `COc1ccc(-c2ccc3c(c2)CCCC3(O)c2ccncc2)cc1F` (racemic) [16 [9]], for which, in the data set on CYP17A1 [1], the pIC50 is listed as 5.480 and the IC50 was 3340 nM.
With `CC(C)=C(c1ccncc1)c1ccc(-c2ccc(N)c(N)c2)cc1` [22 [2]], in the data set with CYP17A1 [1], the pIC50 is reported as 7.120 and the IC50 was 75 nM.
With `CC(C)=C(c1ccncc1)c1ccc(-c2ccc(O)c(O)c2)cc1` [16 [2]], in the data set on CYP17A1 [1], the pIC50 is recorded as 7.430 and the IC50 was 37 nM.
For `CC(c1ccc(-c2ccsc2)cc1)n1ccnc1` (racemic) [12 [9]], in the data set on CYP17A1 [1], the pIC50 was 6.050 and the IC50 was 876 nM.
On to `O=C(CSc1nnc(-c2c[nH]c3ccccc23)n1Cc1ccco1)NCc1ccccc1Cl` [Compound 2, N-[(2-chlorophenyl)methyl]-2-({4-[(furan-2-yl)methyl]-5-(1H-indol-3-yl)-4H-1,2,4-triazol-3-yl}sulfanyl)acetamide], for which, in data set [2], the “inhibition of various CYP450 isoforms” value is “inhibit various CYP450 isoforms”. For the same molecule, on CYP17A1 [4], the “inhibitory potency of CYP17A1” value is “micromolar levels”. Besides, the safety profile result in data set [3] was “reasonably good safety profiles”. The “Soluble in DMSO” value in the data set “Solubility in DMSO” is “Yes”.
With `CC(C)C(O)(c1cccc(-c2ccc(Cl)cc2)c1)c1c[nH]cn1` (centres unmarked) [14 [12]], in the data set with CYP17A1 [1], the pIC50 was 7.310 and the IC50 is 49 nM.
In the case of `CC(=O)Nc1cccc(-c2ccc(C(O)(c3c[nH]cn3)C(C)C)cc2)n1` (centres unmarked) [26 [12]], in the data set with CYP17A1 [1], the pIC50 is listed as 7.440 and the IC50 is 36 nM.
Take `Br.Oc1ccc(-c2ccc3c(c2)CCCC3c2ccncc2)cc1F` (centres unmarked) [20 [13]]: in the data set on CYP17A1 [1], the pIC50 is 7.190 and the IC50 was 64 nM.
Consider `O=C1COc2cc(NCc3cccc(C(=O)Nc4cccnc4)c3)c(O)cc2N1` [Compound 8, 3-{[(6-hydroxy-3-oxo-3,4-dihydro-2H-1,4-benzoxazin-7-yl)amino]methyl}-N-(pyridin-3-yl)benzamide], for which the “IC50 values against CYP19A1, potency level in words” value at CYP19A1 is reported as “sub-micromolar inhibitory potency levels”. In addition, in data set [3], the safety profile result is on record as “excellent safety profiles”. The “Soluble in DMSO” value in the data set “Solubility in DMSO” is given as “Yes”.
On to `CNC(=O)c1cccc(-c2ccc(C(O)(c3c[nH]cn3)C(C)C)cc2)c1` (centres unmarked) [22 [12]], for which, in the data set on CYP17A1 [1], the pIC50 is reported as 7.360 and the IC50 is 44 nM.
With `CNC(=O)Nc1cccc(-c2ccc(C(O)(c3c[nH]cn3)C(C)C)cc2)c1` (centres unmarked) [24 [12]], in the data set on CYP17A1 [1], the pIC50 is listed as 7.680 and the IC50 is 21 nM.
With `COc1ccc(-c2ccc(C(O)(c3c[nH]cn3)C(C)C)cc2)cc1` (racemic) [8 [12]], in the data set on CYP17A1 [1], the pIC50 is 7.270 and the IC50 is 54 nM.
Take `Oc1ccc(-c2ccc(Cc3ccncc3)cc2)cc1O` [9 [9]]: in the data set on CYP17A1 [1], the pIC50 is recorded as 7.280 and the IC50 is 52 nM.
Consider `CC(=O)Nc1cccc(-c2ccc(C(O)(c3c[nH]cn3)C3CC3)cc2)c1` (racemic) [34 [12]], for which, in the data set on CYP17A1 [1], the pIC50 is given as 7.350 and the IC50 was 45 nM.
`CC(C)C(O)(c1ccc(-c2ccccc2)cc1)c1c[nH]cn1` (racemic) [7 [12]]: in the data set with CYP17A1 [1], the pIC50 is on record as 7.480 and the IC50 was 33 nM.
As to `CC(C)C(O)(c1ccc(-c2ccc(F)cc2)cc1)c1c[nH]cn1` (racemic) [15 [12]], in the data set on CYP17A1 [1], the pIC50 is given as 7.570 and the IC50 is 27 nM.
In the case of `c1ccc(-c2ccc3c(c2)CCC3n2ccnc2)cc1` (racemic) [5ay [7]], in the data set on CYP17A1 [1], the pIC50 was 6.620 and the IC50 is 240 nM.
As for `CNC(=O)c1ccc2cc(C(O)(c3cnc[nH]3)C(C)C)ccc2c1` (centres unmarked) [1 [11]], in the data set with CYP17A1 [1], the pIC50 is 7.800 and the IC50 was 16 nM.
With `Oc1ccc(-c2ccc(Cc3ccncc3)cc2)cc1` [30 [10]], in the data set on CYP17A1 [1], the pIC50 is 6.630 and the IC50 is 236 nM.
For `Oc1cccc(-c2ccc(Cc3ccncc3)cc2)c1` [3i [11]], in the data set with CYP17A1 [1], the pIC50 is listed as 7.060 and the IC50 was 88 nM.
Regarding `Oc1ccc(-c2ccc(Cc3ccncc3)cc2)cc1F` [5ax [7]], in the data set with CYP17A1 [1], the pIC50 is on record as 6.770 and the IC50 is 170 nM.
As for `O=C(NC1CC1)c1ccc2cc(C3(O)CCn4cncc43)ccc2c1` (racemic) [5bx [7]], in the data set with CYP17A1 [1], the pIC50 is on record as 6.600 and the IC50 was 250 nM.
As to `Brc1ccc(Cc2ccncc2)cc1` [3g [11]], in the data set with CYP17A1 [1], the pIC50 is recorded as 6.400 and the IC50 was 400 nM.
As for `CC(C)C(O)(c1cccc(-c2ccc(F)cc2)c1)c1c[nH]cn1` (racemic) [13 [12]], in the data set on CYP17A1 [1], the pIC50 is on record as 7.720 and the IC50 is 19 nM.

Source of the values: patent US11548860B2, “Pharmacophores, compounds and methods having application in the treatment of cancer through inhibition of CYP17A1 and CYP19A1” (MANGOSUTHU UNIVERSITY OF TECHNOLOGY, priority 2015, dated 2023).
